Measured values taken from patent publication US20110244047A1, “FILM-FORM PREPARATION AND METHOD FOR PRODUCING THE SAME” (NITTO DENKO CORPORATION, priority 2010, published 2011).

assay: Particle size of the drug particles used (electron microscope, 200 particles); assay type: physicochemical; settings: drug particles before incorporation
Procedure: The various drug particles used in the Examples and Comparative Examples were obtained passing the powder through a 32 μm, 50 μm or 90 μm sieve after pulverization, or obtained fine particles by a jet mill (product of Hosokawa Micron Group, spiral jet mill model 50AS) or a spray dryer (product of Büchi Labortechnik AG, mini spray dryer model B-290) after pulverization. The particle sizes of these drug particles was measured by electron microscope (product of Hitachi High-Technologies Corp., model TM-1000) and the 50 vol % average particle size was calculated from the measurement results of 200 particles. This value was used as the particle size index of the particles.

50 vol % average particle size [um]	Structure (SMILES)
28.4	COc1ccc2[nH]cc(CCNC(C)=O)c2c1 [Melatonin particles B, Melatonin]
2.1	COc1ccc2[nH]cc(CCNC(C)=O)c2c1 [Melatonin particles A, Melatonin]

The next lines start with the compound.

Structure (SMILES)	50 vol % average particle size [um]
COc1ccc2[nH]cc(CCNC(C)=O)c2c1 [Melatonin particles C, Melatonin]	180.5
COc1ccc2c(c1)c(CC(=O)O)c(C)n2C(=O)c1ccc(Cl)cc1 [Indomethacin particles, Indomethacin]	1.8
CC(C(=O)O)c1cccc(C(=O)c2ccccc2)c1 (centres unmarked) [Ketoprofen particles, Ketoprofen]	1.7
